Source: patent US10231954B2, “Neurodegenerative therapies” (LYTIX BIOPHARMA AS, priority 2014, dated 2019)
Read-outs that look alike come from different tables or passages of the source.

What was measured:
Assay type in all cases: biochemical
BRSK2 = molecular target: T1, BRSK2 (Homo sapiens, UniProt Q8IWQ3); test: Kinase profiling BRSK2; details: for remaining activity at 100 µM: read-out: residual kinase activity, BRSK2
T1 sequence (Q8IWQ3 1-736): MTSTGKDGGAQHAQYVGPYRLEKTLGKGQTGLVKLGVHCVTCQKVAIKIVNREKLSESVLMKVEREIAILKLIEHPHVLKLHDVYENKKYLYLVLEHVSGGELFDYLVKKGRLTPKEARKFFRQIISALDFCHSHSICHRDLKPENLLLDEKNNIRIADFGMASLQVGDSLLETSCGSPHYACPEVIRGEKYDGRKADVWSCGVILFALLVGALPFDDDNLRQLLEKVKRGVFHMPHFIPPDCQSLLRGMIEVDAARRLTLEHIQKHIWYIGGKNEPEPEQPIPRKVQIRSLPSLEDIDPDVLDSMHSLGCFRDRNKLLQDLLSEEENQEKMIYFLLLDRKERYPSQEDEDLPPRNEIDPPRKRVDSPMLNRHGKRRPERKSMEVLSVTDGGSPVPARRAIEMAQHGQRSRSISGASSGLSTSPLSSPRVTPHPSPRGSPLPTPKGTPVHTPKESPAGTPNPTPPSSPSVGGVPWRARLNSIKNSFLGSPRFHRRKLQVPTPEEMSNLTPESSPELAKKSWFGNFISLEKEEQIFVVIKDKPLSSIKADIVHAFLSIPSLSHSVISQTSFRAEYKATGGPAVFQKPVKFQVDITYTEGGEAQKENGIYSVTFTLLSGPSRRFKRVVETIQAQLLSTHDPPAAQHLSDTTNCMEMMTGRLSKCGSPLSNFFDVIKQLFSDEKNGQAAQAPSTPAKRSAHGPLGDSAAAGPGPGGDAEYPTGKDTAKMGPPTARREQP
Description: (§1) Any value less that 25 is considered to be highly significant inhibition.

PAK2 = PAK2 (Homo sapiens, UniProt Q13177); test: Kinase profiling PAK2; details: for remaining activity at 100 µM: read-out: residual kinase activity, PAK2
Sequence of PAK2 (Q13177 whole entry, species assumed): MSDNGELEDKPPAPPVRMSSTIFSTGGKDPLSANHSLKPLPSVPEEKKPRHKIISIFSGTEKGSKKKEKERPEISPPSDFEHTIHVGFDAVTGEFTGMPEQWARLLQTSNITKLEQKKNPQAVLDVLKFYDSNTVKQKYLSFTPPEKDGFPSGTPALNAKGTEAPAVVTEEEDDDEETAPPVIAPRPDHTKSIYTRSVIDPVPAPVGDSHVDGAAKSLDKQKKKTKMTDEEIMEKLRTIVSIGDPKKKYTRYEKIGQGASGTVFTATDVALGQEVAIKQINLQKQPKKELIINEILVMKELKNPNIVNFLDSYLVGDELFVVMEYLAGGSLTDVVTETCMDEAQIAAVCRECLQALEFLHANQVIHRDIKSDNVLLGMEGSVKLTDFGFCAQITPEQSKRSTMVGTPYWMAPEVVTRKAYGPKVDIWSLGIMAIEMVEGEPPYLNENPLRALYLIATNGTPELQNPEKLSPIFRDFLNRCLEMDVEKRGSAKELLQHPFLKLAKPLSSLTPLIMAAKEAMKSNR
Description: as §1

PAK5 = PAK5 (Homo sapiens, UniProt Q9P286); test: Kinase profiling PAK5; details: for remaining activity at 100 µM: read-out: residual kinase activity, PAK5
Sequence of PAK5 (Q9P286 whole entry): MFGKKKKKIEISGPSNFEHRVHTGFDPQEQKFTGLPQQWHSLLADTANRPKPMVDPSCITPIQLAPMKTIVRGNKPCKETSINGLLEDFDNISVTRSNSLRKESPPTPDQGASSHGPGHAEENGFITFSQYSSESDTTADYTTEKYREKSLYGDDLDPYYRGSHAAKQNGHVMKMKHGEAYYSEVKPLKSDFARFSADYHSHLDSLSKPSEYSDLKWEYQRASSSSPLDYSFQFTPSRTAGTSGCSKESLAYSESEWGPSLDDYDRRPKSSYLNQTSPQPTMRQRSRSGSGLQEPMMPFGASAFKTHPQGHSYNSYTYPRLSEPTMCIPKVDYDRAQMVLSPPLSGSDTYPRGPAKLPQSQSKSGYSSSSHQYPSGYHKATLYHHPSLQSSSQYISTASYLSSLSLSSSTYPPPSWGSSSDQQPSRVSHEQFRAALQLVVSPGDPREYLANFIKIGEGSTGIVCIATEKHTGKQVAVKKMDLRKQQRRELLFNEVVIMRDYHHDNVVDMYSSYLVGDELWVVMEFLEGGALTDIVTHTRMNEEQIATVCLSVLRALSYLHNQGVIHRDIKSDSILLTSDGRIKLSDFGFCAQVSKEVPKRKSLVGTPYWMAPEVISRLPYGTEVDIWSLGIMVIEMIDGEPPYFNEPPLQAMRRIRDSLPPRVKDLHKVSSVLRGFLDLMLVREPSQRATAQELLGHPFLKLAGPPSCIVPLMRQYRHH
Description: as §1

CSK = CSK (Homo sapiens, UniProt P41240); test: Kinase profiling CSK; details: for remaining activity at 100 µM: read-out: residual kinase activity, CSK
Sequence of CSK (P41240 whole entry, species assumed): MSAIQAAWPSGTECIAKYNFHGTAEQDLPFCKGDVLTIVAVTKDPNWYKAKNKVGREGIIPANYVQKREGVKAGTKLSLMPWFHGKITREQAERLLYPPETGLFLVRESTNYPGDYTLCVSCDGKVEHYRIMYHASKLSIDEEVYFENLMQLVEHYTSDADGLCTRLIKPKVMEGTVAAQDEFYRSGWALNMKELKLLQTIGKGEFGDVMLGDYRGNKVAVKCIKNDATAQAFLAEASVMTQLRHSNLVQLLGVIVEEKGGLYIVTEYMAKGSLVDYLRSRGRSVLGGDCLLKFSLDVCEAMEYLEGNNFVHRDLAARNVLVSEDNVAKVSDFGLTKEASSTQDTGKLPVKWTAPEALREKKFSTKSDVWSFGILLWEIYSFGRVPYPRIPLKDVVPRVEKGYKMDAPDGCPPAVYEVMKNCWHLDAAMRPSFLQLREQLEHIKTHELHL
Description: as §1

EPH-B1 = molecular target: T2, EPH-B1 (Homo sapiens, UniProt P54762); test: Kinase profiling EPH-B1; details: for remaining activity at 100 µM: read-out: residual kinase activity, EPH-B1
T2 sequence (P54762 18-984): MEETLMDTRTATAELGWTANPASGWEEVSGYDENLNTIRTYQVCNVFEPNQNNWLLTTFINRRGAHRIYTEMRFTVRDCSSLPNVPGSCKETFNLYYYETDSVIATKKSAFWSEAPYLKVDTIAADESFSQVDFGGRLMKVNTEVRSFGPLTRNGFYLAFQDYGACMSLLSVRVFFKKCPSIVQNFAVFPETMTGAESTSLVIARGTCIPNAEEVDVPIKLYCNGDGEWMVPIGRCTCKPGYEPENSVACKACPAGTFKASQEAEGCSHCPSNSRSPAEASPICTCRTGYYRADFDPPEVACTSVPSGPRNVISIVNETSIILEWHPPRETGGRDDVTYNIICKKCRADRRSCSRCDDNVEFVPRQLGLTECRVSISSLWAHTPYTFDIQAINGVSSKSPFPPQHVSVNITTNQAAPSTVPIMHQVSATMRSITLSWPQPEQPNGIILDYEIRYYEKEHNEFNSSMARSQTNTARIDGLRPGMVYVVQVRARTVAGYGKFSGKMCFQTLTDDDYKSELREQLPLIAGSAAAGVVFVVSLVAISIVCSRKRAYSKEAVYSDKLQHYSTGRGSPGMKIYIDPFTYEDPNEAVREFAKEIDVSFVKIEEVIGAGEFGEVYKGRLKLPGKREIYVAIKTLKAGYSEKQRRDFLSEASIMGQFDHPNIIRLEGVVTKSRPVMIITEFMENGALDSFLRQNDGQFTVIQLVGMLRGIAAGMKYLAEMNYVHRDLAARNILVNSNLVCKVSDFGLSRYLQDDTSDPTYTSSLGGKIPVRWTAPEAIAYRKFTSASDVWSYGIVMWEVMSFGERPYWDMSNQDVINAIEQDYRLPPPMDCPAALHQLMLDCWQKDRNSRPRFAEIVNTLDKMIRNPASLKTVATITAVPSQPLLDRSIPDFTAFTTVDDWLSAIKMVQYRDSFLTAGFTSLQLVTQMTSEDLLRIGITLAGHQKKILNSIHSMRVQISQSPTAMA
Description: as §1

EPH-B3 = molecular target: T3, EPH-B3 (Homo sapiens, UniProt P54753); test: Kinase profiling EPH-B3; details: for remaining activity at 100 µM: read-out: residual kinase activity, EPH-B3
T3 sequence (P54753 34-998): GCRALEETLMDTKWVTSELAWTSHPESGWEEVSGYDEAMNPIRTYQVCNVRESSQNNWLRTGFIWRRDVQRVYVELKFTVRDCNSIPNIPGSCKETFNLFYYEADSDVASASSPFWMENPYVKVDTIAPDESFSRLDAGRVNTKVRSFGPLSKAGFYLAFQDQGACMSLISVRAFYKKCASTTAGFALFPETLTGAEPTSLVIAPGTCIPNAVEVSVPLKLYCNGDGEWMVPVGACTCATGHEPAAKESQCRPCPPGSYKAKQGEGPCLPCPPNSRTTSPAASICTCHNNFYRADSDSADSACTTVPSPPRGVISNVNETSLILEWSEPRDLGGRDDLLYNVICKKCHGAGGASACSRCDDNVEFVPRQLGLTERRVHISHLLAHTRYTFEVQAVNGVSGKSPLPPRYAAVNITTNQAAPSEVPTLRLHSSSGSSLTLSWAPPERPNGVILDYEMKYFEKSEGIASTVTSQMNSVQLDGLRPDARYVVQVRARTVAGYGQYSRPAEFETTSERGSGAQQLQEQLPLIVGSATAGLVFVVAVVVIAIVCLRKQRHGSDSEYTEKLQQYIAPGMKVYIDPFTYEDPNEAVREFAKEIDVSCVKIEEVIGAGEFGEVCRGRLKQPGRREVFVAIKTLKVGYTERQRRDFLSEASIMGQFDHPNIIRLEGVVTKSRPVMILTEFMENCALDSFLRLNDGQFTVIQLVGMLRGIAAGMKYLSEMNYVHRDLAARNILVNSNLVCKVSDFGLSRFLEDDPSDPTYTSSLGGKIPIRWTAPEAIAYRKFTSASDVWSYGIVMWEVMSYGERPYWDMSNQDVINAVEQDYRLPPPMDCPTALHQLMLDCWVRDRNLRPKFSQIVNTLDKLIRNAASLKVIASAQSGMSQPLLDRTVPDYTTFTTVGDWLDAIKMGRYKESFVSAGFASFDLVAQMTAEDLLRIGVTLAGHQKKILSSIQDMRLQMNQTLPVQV
Description: as §1

FGF-R1 = FGF-R1 (Homo sapiens, UniProt P11362); test: Kinase profiling FGF-R1; details: for remaining activity at 100 µM: read-out: residual kinase activity, FGF-R1
Sequence of FGF-R1 (P11362 22-822, species assumed): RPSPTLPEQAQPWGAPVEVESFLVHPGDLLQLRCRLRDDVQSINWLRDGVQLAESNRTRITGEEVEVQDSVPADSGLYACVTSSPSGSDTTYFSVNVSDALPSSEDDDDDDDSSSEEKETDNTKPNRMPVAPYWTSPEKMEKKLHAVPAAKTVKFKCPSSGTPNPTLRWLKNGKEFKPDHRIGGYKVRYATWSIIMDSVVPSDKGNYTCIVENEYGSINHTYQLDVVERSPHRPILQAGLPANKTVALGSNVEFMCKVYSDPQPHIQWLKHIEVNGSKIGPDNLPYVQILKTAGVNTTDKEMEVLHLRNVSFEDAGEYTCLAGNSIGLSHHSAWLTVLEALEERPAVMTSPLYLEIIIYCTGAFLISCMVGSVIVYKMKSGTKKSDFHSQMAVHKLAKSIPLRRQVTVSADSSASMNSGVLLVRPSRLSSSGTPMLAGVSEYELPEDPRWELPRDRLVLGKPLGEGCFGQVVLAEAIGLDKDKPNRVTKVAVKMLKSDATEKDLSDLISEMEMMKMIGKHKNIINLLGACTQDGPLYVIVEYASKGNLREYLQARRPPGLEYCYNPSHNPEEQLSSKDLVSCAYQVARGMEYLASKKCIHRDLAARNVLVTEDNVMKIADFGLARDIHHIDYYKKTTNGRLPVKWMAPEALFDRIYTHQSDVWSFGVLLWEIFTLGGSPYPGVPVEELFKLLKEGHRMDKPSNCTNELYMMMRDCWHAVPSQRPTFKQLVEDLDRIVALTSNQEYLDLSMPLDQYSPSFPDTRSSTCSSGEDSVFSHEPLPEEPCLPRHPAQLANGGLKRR
Description: as §1

[1] = 100 micromolar inhibitor concentration, 100 is no change
[2] = 100 micromolar inhibitor, 100 = no change

Structure (SMILES): CC(=O)Nc1nc2cc(O)ccc2s1 [Compound 01-66, N-(5-hydroxybenzo[d]thiazol-2-yl)acetamide]
- remaining activity at 100 µM (BRSK2): 56%
- remaining activity at 100 µM (PAK2): 93%
- remaining activity at 100 µM (PAK5): 72%
- remaining activity at 100 µM (CSK): 92%
- remaining activity at 100 µM (EPH-B1): 93%
- remaining activity at 100 µM (EPH-B3): 83%
- remaining activity at 100 µM (FGF-R1): 67%

Structure (SMILES): CC(=O)Nc1nc2ccc(O)cc2s1 [Compound 01-71]
- remaining activity at 100 µM (BRSK2; [1]): 22%
- remaining activity at 100 µM (PAK2; [1]): 102%
- remaining activity at 100 µM (PAK5; [1]): 85%
- remaining activity at 100 µM (CSK; [1]): 78%
- remaining activity at 100 µM (EPH-B1; [1]): 86%
- remaining activity at 100 µM (EPH-B3; [1]): 66%
- remaining activity at 100 µM (FGF-R1; [1]): 42%

Structure (SMILES): CC(=O)Nc1nc2ccc(C(F)(F)F)cc2s1 [Compound 01-90]
- remaining activity at 100 µM (BRSK2; [1]): 64%
- remaining activity at 100 µM (PAK2; [1]): 103%
- remaining activity at 100 µM (PAK5; [1]): 82%
- remaining activity at 100 µM (CSK; [1]): 61%
- remaining activity at 100 µM (EPH-B1; [1]): 91%
- remaining activity at 100 µM (EPH-B3; [1]): 89%
- remaining activity at 100 µM (FGF-R1; [1]): 40%

Structure (SMILES): CC(=O)Nc1nc2ccc(C#N)cc2s1 [Compound 01-94]
- remaining activity at 100 µM (BRSK2; [1]): 67%
- remaining activity at 100 µM (PAK2; [1]): 101%
- remaining activity at 100 µM (PAK5; [1]): 70%
- remaining activity at 100 µM (CSK; [1]): 83%
- remaining activity at 100 µM (EPH-B1; [1]): 94%
- remaining activity at 100 µM (EPH-B3; [1]): 72%
- remaining activity at 100 µM (FGF-R1; [1]): 51%

Structure (SMILES): CC(=O)Nc1cccc(NC(=O)c2nc3ccc(O)cc3s2)c1 [Compound 03-07, N-(3-acetamidophenyl)-6-hydroxybenzo[d]thiazole-2-carboxamide]
- remaining activity at 100 µM (BRSK2; [2]): 66%
- remaining activity at 100 µM (PAK2; [2]): 90%
- remaining activity at 100 µM (PAK5; [2]): 82%
- remaining activity at 100 µM (CSK; [2]): 105%
- remaining activity at 100 µM (EPH-B1; [2]): 104%
- remaining activity at 100 µM (EPH-B3; [2]): 64%
- remaining activity at 100 µM (FGF-R1; [2]): 66%

Structure (SMILES): O=C(Nc1nc2cc(O)ccc2s1)c1ccncc1 [Compound 03-11]
- residual kinase activity, BRSK2 (BRSK2; [1]): 81
- residual kinase activity, PAK2 (PAK2; [1]): 88
- residual kinase activity, PAK5 (PAK5; [1]): 92
- residual kinase activity, CSK (CSK; [1]): 94
- residual kinase activity, EPH-B1 (EPH-B1; [1]): 99
- residual kinase activity, EPH-B3 (EPH-B3; [1]): 76
- residual kinase activity, FGF-R1 (FGF-R1; [1]): 74

Structure (SMILES): O=C(Nc1nc2ccc(O)cc2s1)c1ccccn1 [Compound 03-12]
- residual kinase activity, BRSK2 (BRSK2; [1]): 79
- residual kinase activity, PAK2 (PAK2; [1]): 104
- residual kinase activity, PAK5 (PAK5; [1]): 94
- residual kinase activity, CSK (CSK; [1]): 101
- residual kinase activity, EPH-B1 (EPH-B1; [1]): 94
- residual kinase activity, EPH-B3 (EPH-B3; [1]): 63
- residual kinase activity, FGF-R1 (FGF-R1; [1]): 16

Structure (SMILES): O=C(Nc1nc2cc(O)ccc2s1)c1ccccn1 [Compound 03-13]
- residual kinase activity, BRSK2 (BRSK2; [1]): 80
- residual kinase activity, PAK2 (PAK2; [1]): 119
- residual kinase activity, PAK5 (PAK5; [1]): 82
- residual kinase activity, CSK (CSK; [1]): 95
- residual kinase activity, EPH-B1 (EPH-B1; [1]): 98
- residual kinase activity, EPH-B3 (EPH-B3; [1]): 44
- residual kinase activity, FGF-R1 (FGF-R1; [1]): 81

Structure (SMILES): COc1ccc2sc(NC(C)=O)nc2c1 [Compound 03-21]
- remaining activity at 100 µM (BRSK2; [1]): 95%
- remaining activity at 100 µM (PAK2; [1]): 95%
- remaining activity at 100 µM (PAK5; [1]): 110%
- remaining activity at 100 µM (CSK; [1]): 104%
- remaining activity at 100 µM (EPH-B1; [1]): 99%
- remaining activity at 100 µM (EPH-B3; [1]): 106%
- remaining activity at 100 µM (FGF-R1; [1]): 104%

Structure (SMILES): CC(=O)Nc1nc2ccccc2s1 [Compound 03-32]
- residual kinase activity, BRSK2 (BRSK2; [1]): 91
- residual kinase activity, PAK2 (PAK2; [1]): 90
- residual kinase activity, PAK5 (PAK5; [1]): 74
- residual kinase activity, CSK (CSK; [1]): 83
- residual kinase activity, EPH-B1 (EPH-B1; [1]): 97
- residual kinase activity, EPH-B3 (EPH-B3; [1]): 71
- residual kinase activity, FGF-R1 (FGF-R1; [1]): 12

Structure (SMILES): O=C(Nc1nc2cc(O)ccc2s1)c1cccnc1 [Compound 03-33]
- residual kinase activity, BRSK2 (BRSK2; [1]): 82
- residual kinase activity, PAK2 (PAK2; [1]): 114
- residual kinase activity, PAK5 (PAK5; [1]): 109
- residual kinase activity, CSK (CSK; [1]): 88
- residual kinase activity, EPH-B1 (EPH-B1; [1]): 104
- residual kinase activity, EPH-B3 (EPH-B3; [1]): 108
- residual kinase activity, FGF-R1 (FGF-R1; [1]): 102

Structure (SMILES): O=C(Nc1nc2ccc(O)cc2s1)c1ccccc1 [Compound 03-60]
- residual kinase activity, BRSK2 (BRSK2; [1]): 34
- residual kinase activity, PAK2 (PAK2; [1]): 94
- residual kinase activity, PAK5 (PAK5; [1]): 70
- residual kinase activity, CSK (CSK; [1]): 69
- residual kinase activity, EPH-B1 (EPH-B1; [1]): 98
- residual kinase activity, EPH-B3 (EPH-B3; [1]): 93
- residual kinase activity, FGF-R1 (FGF-R1; [1]): 84

Structure (SMILES): CC(=O)Nc1nc2cc(C(F)(F)F)ccc2s1 [Compound 03-73]
- remaining activity at 100 µM (BRSK2; [1]): 98%
- remaining activity at 100 µM (PAK2; [1]): 85%
- remaining activity at 100 µM (PAK5; [1]): 85%
- remaining activity at 100 µM (CSK; [1]): 91%
- remaining activity at 100 µM (EPH-B1; [1]): 114%
- remaining activity at 100 µM (EPH-B3; [1]): 114%
- remaining activity at 100 µM (FGF-R1; [1]): 109%
